Calls of active or inactive are those of the source.
Legend:
[1] = target: T1, Rac GTPase-activating protein 1 (Homo sapiens, UniProt Q9H0H5); assay: MgcRacGAP GTPase-activating activity inhibitors, confirmation, biochemical, ADP Hunter fluorescence, primary and confirmatory (AID 624330); type: functional
T1 sequence (Q9H0H5 whole entry): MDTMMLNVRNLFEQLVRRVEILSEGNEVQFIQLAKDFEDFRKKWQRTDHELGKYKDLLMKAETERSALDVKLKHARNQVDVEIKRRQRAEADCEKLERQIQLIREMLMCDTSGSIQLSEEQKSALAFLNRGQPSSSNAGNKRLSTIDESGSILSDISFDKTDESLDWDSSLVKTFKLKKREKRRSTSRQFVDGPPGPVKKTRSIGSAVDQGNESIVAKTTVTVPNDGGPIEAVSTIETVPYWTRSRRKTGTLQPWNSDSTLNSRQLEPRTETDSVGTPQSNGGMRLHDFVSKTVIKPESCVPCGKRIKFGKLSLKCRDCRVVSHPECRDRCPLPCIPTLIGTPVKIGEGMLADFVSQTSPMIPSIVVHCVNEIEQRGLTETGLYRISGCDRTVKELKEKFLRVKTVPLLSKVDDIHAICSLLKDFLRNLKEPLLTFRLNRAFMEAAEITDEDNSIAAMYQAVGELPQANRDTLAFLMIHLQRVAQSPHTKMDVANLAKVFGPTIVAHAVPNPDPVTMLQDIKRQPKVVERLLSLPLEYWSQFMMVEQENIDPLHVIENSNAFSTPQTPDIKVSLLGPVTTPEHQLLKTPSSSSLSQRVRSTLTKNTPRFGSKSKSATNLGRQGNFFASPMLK

[2] = target: G-protein coupled receptor 35 (Homo sapiens, UniProt Q9HC97); assay: GPR35 antagonists blocking zaprinast-driven arrestin recruitment, primary screen, imaging, U2OS, beta-arrestin-GFP, zaprinast agonist (AID 2058); type: functional;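 also: antagonist potency meaning inhibition of agonist-induced arrestin redistribution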
[3] = target: T2, Type-1 angiotensin II receptor (Homo sapiens, UniProt P30556); assay: AT1 receptor agonists, dose response, selectivity assay for APJ receptor agonist project, cell-based, uHTS hits (AID 488865); type: functional;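 also: beta-arrestin recruitment to AT1 measured by enzyme fragment complementation luminescence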
T2 sequence (P30556 whole entry): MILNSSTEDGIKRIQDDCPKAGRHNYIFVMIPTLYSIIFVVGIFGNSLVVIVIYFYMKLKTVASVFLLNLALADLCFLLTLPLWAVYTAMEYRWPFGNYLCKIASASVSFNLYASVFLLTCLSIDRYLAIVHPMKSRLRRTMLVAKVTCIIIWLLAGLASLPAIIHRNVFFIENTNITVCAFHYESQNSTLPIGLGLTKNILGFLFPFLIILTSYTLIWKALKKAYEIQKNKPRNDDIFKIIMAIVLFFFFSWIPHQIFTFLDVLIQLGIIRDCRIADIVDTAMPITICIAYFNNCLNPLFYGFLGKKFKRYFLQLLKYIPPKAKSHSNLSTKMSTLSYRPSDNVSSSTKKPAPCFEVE

Trypsin = Trypsin (Sus scrofa, UniProt P00761); assay: porcine trypsin inhibitors, dose response, selectivity assay for Rce1 protease inhibitor project, biochemical, quenched peptide fluorescence, cherry-pick (AID 488789)
[4] = HEp-2 cell cytotoxicity, dose response, cytotoxicity control for RSV inhibitor project, HTS (AID 2410); type: functional; conditions: human respiratory syncytial virus
CAAX prenyl protease 2 = target: T3, CAAX prenyl protease 2 (Homo sapiens, UniProt Q9Y256); assay: human Rce1 protease inhibitors, dose response, biochemical, yeast membranes, quenched-peptide fluorescence, cherry-pick (AID 588849)
T3 sequence (Q9Y256 whole entry): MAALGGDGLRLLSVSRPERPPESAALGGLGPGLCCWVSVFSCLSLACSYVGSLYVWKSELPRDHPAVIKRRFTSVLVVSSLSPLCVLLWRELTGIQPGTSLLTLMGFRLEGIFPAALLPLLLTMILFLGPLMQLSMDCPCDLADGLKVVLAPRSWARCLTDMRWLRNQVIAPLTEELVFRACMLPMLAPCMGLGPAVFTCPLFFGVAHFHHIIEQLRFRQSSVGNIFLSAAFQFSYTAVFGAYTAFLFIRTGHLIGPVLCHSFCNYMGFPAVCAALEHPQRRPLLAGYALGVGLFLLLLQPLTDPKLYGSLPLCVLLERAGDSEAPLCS

[5] = target: Polyadenylate-binding protein 1 (Homo sapiens, UniProt P11940); assay: PABP inhibition in translation initiation, SAR follow-up (AID 435018); type: functional
Chain of Polyadenylate-binding protein 1 (P11940 whole entry): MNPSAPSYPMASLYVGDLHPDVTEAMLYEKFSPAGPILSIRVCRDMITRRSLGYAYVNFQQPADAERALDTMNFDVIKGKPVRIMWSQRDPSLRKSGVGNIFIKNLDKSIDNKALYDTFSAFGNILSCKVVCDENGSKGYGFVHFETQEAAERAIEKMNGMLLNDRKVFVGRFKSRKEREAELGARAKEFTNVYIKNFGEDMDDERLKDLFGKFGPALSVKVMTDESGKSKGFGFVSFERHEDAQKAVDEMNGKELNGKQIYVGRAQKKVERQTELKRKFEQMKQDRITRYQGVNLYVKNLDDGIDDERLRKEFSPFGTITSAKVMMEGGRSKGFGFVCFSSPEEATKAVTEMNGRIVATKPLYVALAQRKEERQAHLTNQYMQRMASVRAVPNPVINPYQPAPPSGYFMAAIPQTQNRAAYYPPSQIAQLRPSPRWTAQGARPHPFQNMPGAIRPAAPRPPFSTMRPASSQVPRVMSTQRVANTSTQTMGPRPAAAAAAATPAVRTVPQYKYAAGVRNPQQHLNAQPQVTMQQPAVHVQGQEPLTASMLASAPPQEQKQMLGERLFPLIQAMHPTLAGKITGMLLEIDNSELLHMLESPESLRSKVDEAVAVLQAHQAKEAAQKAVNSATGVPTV

[6] = target: Eukaryotic translation initiation factor 4H (Homo sapiens, UniProt Q15056); assay: eIF4H inhibition in translation initiation, SAR follow-up (AID 435011); type: functional
Hexokinase = Hexokinase (Trypanosoma brucei, UniProt Q38C41); assay: Confirmation assay for inhibitors of Trypanosoma brucei hexokinase 1-Analogue-first series. [Related pubchem assays (depositor defined):AID1430, AID1632, AID2516, AID2560, AID2579, AID2600, AID449725, AID492951]; type: functional
Chain of Hexokinase (Q38C41 whole entry): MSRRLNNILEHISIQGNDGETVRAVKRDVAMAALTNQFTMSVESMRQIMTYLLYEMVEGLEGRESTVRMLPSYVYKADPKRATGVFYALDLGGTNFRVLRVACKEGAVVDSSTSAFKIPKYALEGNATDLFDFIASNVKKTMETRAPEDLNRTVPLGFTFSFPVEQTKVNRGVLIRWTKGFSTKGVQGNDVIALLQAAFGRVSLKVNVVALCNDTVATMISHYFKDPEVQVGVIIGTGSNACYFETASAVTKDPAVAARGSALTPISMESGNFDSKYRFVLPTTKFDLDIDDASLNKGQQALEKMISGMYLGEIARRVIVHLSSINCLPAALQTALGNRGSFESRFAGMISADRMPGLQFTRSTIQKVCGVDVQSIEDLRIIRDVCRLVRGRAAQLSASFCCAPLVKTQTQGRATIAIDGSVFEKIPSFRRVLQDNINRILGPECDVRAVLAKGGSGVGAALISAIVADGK

[7] = HeLa cell cytotoxicity, dose response, cytotoxicity control for MgcRacGAP inhibitor project (AID 624300); type: functional
[8] = target: Glucose-6-phosphate 1-dehydrogenase (Homo sapiens, UniProt P11413); assay: human G6PD enzyme inhibitors, dose response, selectivity assay for P. falciparum G6PD inhibitor project, biochemical, fluorescence (AID 504792); type: functional
[9] = target: T4, Ubiquitin-conjugating enzyme E2 N (Homo sapiens, UniProt P61088); type: functional
T4 sequence (P61088 whole entry): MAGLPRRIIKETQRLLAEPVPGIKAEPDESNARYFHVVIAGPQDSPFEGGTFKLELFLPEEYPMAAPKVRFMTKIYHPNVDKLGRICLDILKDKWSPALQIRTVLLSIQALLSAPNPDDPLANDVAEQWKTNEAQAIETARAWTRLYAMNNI

Bcl-2-related protein A1 = target: T5, Bcl-2-related protein A1 (Mus musculus, UniProt Q07440); type: functional;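 also: confirmatory dose–response counterscreen on Bfl-1, used to check hits from a UBC13 polyubiquitin inhibitor campaign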
T5 sequence (Q07440 whole entry): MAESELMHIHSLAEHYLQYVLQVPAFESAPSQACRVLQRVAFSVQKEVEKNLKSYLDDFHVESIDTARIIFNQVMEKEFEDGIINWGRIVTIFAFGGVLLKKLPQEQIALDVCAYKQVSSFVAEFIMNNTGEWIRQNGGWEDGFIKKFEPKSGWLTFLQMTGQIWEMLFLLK

[10] = target: T4, Ubiquitin-conjugating enzyme E2 N; type: functional; remark: listed apart in the source
Cytochrome P450 2D6 = Cytochrome P450 2D6 (Homo sapiens, UniProt P10635);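 also: CYP2D6 member of a cytochrome P450 panel assay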
Cytochrome P450 3A4 = Cytochrome P450 3A4 (Homo sapiens, UniProt P08684);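 also: CYP3A4 tested as one member of a cytochrome P450 panel screen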
Cytochrome P450 1A2 = target: T6, Cytochrome P450 1A2 (Homo sapiens, UniProt P05177);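 also: PubChem cytochrome P450 panel assay, CYP1A2 panel member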
T6 sequence (P05177 whole entry): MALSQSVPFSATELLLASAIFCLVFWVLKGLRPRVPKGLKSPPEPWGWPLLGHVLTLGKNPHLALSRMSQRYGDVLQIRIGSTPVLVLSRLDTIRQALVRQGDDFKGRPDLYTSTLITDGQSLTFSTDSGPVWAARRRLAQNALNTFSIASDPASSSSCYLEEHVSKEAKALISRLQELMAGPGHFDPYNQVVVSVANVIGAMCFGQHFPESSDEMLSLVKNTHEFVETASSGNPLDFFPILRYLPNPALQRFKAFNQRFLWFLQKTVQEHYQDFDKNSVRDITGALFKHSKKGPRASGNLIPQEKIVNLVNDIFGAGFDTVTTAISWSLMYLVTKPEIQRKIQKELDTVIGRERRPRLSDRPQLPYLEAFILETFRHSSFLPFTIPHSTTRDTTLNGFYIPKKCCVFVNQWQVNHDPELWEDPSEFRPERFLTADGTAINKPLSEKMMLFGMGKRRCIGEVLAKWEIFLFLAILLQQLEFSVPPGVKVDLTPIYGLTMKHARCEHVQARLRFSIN

Cytochrome P450 2C9 = Cytochrome P450 2C9 (Homo sapiens, UniProt P11712)
[11] = target: G-protein coupled receptor 55 (Homo sapiens, UniProt Q9Y2T6); assay: GPR55 antagonists blocking LPI-driven arrestin recruitment, primary screen, imaging, U2OS, beta-arrestin-GFP, LPI agonist (AID 2013); type: functional;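 also: antagonist potency measured as reduced agonist-driven arrestin aggregation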
Chain of G-protein coupled receptor 55 (Q9Y2T6 whole entry): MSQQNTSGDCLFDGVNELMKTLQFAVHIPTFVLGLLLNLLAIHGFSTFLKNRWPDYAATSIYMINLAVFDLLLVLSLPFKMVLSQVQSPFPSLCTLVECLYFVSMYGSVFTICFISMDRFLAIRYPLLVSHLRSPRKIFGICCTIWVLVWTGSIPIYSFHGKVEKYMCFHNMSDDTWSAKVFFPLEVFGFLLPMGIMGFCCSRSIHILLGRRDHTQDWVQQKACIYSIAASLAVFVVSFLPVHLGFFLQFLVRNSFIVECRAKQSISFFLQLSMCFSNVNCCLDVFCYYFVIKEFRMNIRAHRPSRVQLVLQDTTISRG

[12] = target: T7, Voltage-gated N-type calcium channel alpha-1B subunit/Amyloid beta A4 precursor protein-binding family A member 1 (Homo sapiens, UniProt Q00975+Q02410); type: protein assay
T7 sequence (Q00975 whole entry): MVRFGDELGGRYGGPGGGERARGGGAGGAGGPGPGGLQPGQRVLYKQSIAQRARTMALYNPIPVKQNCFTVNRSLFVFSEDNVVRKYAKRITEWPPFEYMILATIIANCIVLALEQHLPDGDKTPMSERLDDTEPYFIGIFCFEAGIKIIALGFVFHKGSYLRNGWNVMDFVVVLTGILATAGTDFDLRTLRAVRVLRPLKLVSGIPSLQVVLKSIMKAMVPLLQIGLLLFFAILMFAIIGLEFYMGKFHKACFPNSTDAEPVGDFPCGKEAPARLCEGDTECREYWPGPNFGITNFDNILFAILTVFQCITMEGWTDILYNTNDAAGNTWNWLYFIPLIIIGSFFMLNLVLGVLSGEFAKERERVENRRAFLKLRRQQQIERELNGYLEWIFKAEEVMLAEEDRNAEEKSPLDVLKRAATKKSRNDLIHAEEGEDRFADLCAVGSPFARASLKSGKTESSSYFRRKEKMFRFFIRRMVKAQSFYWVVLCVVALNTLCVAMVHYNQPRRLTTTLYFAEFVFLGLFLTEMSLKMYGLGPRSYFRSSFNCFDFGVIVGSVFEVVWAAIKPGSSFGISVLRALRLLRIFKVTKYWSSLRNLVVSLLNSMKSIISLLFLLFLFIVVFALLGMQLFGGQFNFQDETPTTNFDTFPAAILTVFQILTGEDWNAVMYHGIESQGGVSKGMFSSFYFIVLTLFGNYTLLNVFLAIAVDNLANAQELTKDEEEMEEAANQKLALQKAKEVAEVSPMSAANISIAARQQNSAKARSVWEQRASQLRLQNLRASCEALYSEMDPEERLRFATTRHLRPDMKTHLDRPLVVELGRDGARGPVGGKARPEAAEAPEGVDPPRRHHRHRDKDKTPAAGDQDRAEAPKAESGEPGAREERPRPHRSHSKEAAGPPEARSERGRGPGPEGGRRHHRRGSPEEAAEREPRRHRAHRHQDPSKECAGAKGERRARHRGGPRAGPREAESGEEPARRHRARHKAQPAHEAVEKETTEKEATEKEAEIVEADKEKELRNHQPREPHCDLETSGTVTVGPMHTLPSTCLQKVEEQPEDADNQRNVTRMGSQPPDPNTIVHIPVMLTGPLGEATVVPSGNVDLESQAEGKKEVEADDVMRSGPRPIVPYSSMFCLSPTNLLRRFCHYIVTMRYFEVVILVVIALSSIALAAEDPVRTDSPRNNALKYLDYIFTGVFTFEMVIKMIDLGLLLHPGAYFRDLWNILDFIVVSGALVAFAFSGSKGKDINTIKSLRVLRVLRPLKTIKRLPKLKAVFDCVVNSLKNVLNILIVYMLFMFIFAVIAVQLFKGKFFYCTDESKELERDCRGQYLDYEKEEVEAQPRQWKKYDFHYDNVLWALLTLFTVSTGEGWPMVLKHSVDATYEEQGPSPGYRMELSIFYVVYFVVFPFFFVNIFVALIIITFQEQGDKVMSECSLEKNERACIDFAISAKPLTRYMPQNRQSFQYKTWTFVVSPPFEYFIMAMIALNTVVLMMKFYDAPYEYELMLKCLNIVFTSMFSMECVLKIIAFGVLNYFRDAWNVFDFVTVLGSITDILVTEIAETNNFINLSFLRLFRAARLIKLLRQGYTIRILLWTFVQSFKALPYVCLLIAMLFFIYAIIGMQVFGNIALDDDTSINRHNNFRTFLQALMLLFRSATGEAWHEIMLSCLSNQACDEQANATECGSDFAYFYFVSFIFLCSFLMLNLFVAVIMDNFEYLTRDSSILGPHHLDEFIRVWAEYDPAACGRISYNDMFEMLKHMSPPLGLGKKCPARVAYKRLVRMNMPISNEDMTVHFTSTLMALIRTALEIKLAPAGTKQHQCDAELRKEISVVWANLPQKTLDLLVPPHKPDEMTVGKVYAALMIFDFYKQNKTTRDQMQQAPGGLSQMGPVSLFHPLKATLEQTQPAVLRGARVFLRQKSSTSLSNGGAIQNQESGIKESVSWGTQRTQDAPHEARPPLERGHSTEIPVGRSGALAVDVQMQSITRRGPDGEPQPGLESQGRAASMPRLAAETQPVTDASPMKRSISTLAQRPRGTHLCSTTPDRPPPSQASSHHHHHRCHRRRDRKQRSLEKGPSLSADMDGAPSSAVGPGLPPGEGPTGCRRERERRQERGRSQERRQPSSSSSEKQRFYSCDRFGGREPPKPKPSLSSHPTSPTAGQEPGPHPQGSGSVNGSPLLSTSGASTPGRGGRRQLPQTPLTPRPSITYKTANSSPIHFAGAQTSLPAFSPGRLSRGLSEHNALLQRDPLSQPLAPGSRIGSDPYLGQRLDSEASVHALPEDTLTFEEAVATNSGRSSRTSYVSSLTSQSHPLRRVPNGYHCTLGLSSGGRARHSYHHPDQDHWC
T7 sequence (Q02410 whole entry): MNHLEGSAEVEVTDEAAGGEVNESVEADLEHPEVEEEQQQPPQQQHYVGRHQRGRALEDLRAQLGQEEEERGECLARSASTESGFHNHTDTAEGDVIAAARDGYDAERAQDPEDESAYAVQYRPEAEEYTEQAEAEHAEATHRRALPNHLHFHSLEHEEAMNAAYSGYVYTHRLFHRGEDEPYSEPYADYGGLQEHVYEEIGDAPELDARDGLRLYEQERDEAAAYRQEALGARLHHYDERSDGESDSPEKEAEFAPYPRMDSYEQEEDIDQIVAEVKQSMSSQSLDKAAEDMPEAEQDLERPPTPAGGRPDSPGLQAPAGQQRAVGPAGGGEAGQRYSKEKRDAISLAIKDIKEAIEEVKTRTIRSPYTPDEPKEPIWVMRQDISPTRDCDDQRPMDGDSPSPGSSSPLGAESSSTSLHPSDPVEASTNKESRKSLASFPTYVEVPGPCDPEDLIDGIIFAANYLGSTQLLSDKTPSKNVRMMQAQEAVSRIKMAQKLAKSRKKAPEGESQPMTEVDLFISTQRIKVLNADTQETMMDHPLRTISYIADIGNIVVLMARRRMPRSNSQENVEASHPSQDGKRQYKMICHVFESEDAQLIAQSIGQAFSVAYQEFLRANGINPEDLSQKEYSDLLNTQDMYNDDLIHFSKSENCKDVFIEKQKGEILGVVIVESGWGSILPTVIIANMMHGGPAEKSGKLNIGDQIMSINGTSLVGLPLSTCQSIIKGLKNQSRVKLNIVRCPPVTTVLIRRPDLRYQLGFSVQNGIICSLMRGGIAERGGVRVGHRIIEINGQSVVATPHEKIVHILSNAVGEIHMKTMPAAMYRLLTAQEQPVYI

[13] = target: T7, Voltage-gated N-type calcium channel alpha-1B subunit/Amyloid beta A4 precursor protein-binding family A member 1; type: protein assay; remark: listed apart in the source
Streptococcus = assay: Group A Streptococcus viability loss, dose response, counter-screen for streptokinase expression inhibitor project, luminescence, BacTiterGlo (AID 1915); type: functional, organism-based;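 also: potency for reduction of bacterial viability or growth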
Streptokinase A = target: T8, Streptokinase A (Streptococcus pyogenes serotype M1, UniProt P10520); assay: S. pyogenes streptokinase expression inhibitors, potency, dose response, plasminogen activation absorbance, OD405 (AID 1914); type: functional, Streptococcus pyogenes M1 GAS;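 also: secreted streptokinase activity via plasminogen activation per viability signal from cell pellet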
T8 sequence (P10520 whole entry): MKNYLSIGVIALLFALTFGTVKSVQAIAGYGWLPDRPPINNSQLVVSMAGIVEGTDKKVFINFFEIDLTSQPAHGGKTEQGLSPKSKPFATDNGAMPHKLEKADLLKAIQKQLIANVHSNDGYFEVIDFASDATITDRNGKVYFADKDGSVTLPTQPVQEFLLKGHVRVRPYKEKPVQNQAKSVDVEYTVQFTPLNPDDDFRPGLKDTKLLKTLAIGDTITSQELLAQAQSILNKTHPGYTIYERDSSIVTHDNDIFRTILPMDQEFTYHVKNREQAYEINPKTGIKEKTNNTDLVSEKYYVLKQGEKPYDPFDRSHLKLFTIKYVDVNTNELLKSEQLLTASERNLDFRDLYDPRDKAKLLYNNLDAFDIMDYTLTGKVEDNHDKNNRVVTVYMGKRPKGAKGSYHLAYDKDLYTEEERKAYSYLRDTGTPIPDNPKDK

[14] = system: Streptococcus sp. 'group A'; assay: growth inhibition of control SK(-) GAS strain, dose response, counter-screen for streptokinase expression inhibitor project, luminescence, kanamycin, BacTiterGlo, confirmation (AID 1900); type: functional, organism-based
[15] = growth suppression of beta-catenin-knockout colon cells, dose response, cell-based, HCT116, human colon tumor (AID 1045); type: functional;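 also: HCT116 colon tumor cells with beta catenin knocked out; cells exposed to compound for 60 hours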
[16] = A Cell Based Secondary Assay To Explore Cytotoxicity of Compounds that Sensitize Mycobacterium Tuberculosis to Beta-Lactam Antibiotics.; type: functional
SUMO-activating enzyme = SUMO-activating enzyme (Homo sapiens, UniProt Q9UBT2); assay: SUMOylation inhibitor hit validation, confirmation, SUMOylation inhibitor project, biochemical, AlphaScreen (AID 2018); type: functional
[17] = target: T9, Calpain-2 catalytic subunit (Sus scrofa, UniProt P43367); assay: pig calpain II inhibitor potency, dose response, biochemical, fluorogenic peptide substrate (AID 1420); type: functional
T9 sequence (P43367 whole entry): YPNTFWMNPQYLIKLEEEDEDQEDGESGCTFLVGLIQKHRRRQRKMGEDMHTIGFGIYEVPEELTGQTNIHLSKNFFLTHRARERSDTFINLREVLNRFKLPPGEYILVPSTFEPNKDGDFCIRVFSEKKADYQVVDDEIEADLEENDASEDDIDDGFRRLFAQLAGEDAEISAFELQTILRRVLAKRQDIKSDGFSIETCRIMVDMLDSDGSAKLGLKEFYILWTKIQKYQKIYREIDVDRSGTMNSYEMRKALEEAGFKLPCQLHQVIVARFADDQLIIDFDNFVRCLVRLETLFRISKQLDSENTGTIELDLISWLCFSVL

[18] = growth suppression of PTEN-null colon cells, dose response, cell-based, HCT116 PTEN knockout (AID 1047); type: functional;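 also: HCT116 colon tumor cells with PTEN knocked out; cells exposed to compound for 60 hours before readout; potency for loss of cell viability measured by luminescence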

For `N#C/C(=C/c1ccc(N2CCOCC2)o1)c1nc2ccccc2[nH]1`, which IC50 [1] is on record?
Its IC50 is 20.4 µM (active).

And the IC50 [2]?
The IC50 was 2.41 µM (active).

For `CCOc1cc2[nH]c(=S)n(CCCC(=O)NCc3ccccn3)c(=O)c2cc1OCC`, which EC50 [3] is on record?
Its EC50 is > 100 µM (inactive).

For `NC(=O)c1sc2nc(N3CCCCC3)c3c(c2c1N)CCCC3`, which AC50 (Trypsin) is on record?
The AC50 was 3.58 µM (active).

And the CC50 [4]?
The CC50 was 15.6 µM (active).

And the AC50 (CAAX prenyl protease 2)?
Its AC50 is 7.04 µM (active).

With `COc1ccc(N=C2SC(C(=O)Nc3ccc(F)cc3)CC(=O)N2C)cc1` (centres undefined) as the molecule, how does the IC50 [5] read?
Its IC50 is > 100 µM (inactive).

And the IC50 [6]?
The IC50 was > 100 µM (inactive).

Which IC50 [1] does the source give for `O=c1c2cc(F)ccc2sn1-c1ccccc1Cl` here?
The IC50 was 35 µM (active).

What about the IC50 (Hexokinase) of the same molecule?
The IC50 was 2.33 µM (active).

And the CC50 [7]?
The CC50 was 71.9 µM (active).

What about the IC50 [8] of the same molecule?
Its IC50 is 15.9 µM (active).

With `O=C(NCCCN1CCN(c2ccc(F)cc2)CC1)C1CCCN(c2ncnc3c2nc2n3CCCCC2)C1` (centres undefined) as the molecule, how does the IC50 [9] read?
Its IC50 is 3.64 µM (active).

What about the IC50 (Bcl-2-related protein A1) of the same molecule?
The IC50 was > 20 µM (inactive).

And the IC50 [10]?
The IC50 was 8.08 µM (active).

With `O=C(Nc1cc(Cl)ccc1C(=O)O)c1ccc(-c2cccs2)cc1` as the molecule, how does the IC50 (Hexokinase) read?
The IC50 was > 25 µM (inactive).

What does the source list for `NC1=C(c2nc(-c3ccc(F)cc3)cs2)C(=O)CN1CCCN1CCOCC1`?
AC50 (Cytochrome P450 2D6): 28.2 µM (inconclusive); AC50 (Cytochrome P450 3A4): 10 µM (inconclusive); AC50 (Cytochrome P450 1A2): 15.8 µM (inconclusive); AC50 (Cytochrome P450 2C9): 28.2 µM (inconclusive); IC50 [11]: 9.02 µM (active)

Which results are given for `Cc1cccc(NC(=S)NCc2ccco2)n1`?
IC50 [12]: > 50 µM (inactive); IC50 [13]: 6.94 µM (active)

Which results are given for `c1ccc(-c2noc(-c3ccccc3-c3ccccc3)n2)cc1`?
EC50 (Streptococcus): > 150 µM (not active); IC50 [11]: 6.09 µM (active); EC50 (Streptokinase A): 21.5 µM (active); EC50 [14]: 11.8 µM (active)

What does the source list for `O=C(Nc1nnc(-c2ccccc2SCc2ccccc2F)s1)Nc1ccccc1F`?
EC50 [15]: 5.32 µM (active); CC50 [16]: 29.5 µM (active); IC50 (SUMO-activating enzyme): 41.1 µM (active); IC50 [17]: > 50 µM (not active); EC50 [18]: 5.89 µM (active)

With `O=C(CSc1ccc(-c2ccco2)nn1)NCc1ccccc1` as the molecule, how does the IC50 [5] read?
The IC50 was > 100 µM (inactive).

What about the IC50 [6] of the same molecule?
Its IC50 is 57 µM (active).

Reference: ChEMBL document CHEMBL1201862, “PubChem BioAssay data set” (2004)
